# Test results as given in patent publication EP4501112A1, “PLANT DEFENSE ELICITORS” (Globachem NV, priority 2023, dated 2025).
# Where two headings read alike, the source gives them in different places.
# What was measured:
# Format in all cases: in vivo
# [1] = tested on: Root knot nematode (Meloidogyne graminicola); experiment: Root knot nematode gall development on wheat roots after treatment; details: foliar spraying, stock solution 200 x diluted; 400 J2 per plant 24 hours after treatment; 14 days after inoculation
# Protocol: DISEASE/PEST: Root knot nematode (Meloidogyne graminicola) CROP: Triticum aestivum APPLICATION: Foliar application EXPERIMENT/TRIAL PROTOCOL: After seed germination, wheat plants were grown individually for 2 weeks in a PVC tube (18 cm height, 3 cm diameter) filled with a substrate of sand and a water-absorbing polymer (DCM Aquaperla). Plants were grown at 24 °C and supplied with Hoagland solution and water 3 times per week. They were treated after 2 weeks. Twenty-four hours after treatment they were inoculated with 400 nematode juveniles (second stage; J2) per plant. 8 individual plants were analyzed per treatment. Evaluation of nematode infection was done 14 days after inoculation. Development of galls on the roots was microscopically observed and counted. No females were observed yet at this early time point, in any of the treatments. The number of galls was reduced in the […], pelargonic acid ([…] decanoic acid (pm4) treated plants. Azelaic acid (pm3) had no effect on gall numbers in the used concentration. FORMULATION USED: […] PM1 is already formulated.
# Fusarium culmorum = experiment: whole plant or invertebrate; details: for Emax: Fusarium culmorum, in Triticum aestivum, 144 h, read-out: % Efficacy
# Leptosphaeria maculans = experiment: Seed treatment lab trial against Leptosphaeria maculans in oilseed rape seedlings; details: for Emax: Plenodomus lingam, in Brassica napus, 144 h, 6 days after inoculation, read-out: % Efficacy
# Excerpt: [table] Table 8: Efficacy assessment of fatty acids in seed treatment of Leptosphaeria maculans in oilseed rape (variety Helga)
# [2] = tested on: Winter wheat (cv. Keitum); experiment: Biostimulant effect of seed coating on winter wheat (greenhouse, root scans)
# Excerpt: [table] Table 13. Biostimulant effect of ammonium pelargonate on winter wheat (cv. Keitum) 14 days after sowing
# Spodoptera exigua = experiment: S. exigua survival, larval weight and leaf damage on pea plants after foliar spray; parameters: key to plant damage (1 to 5 scale): 0=no damage or no sucking observed; 1=some damage or some sucking observed; 3=half leaf eaten or half of aphids sucking the leaf; 5=no leaf left or all insects sucking and reproducing; details: 0.016 g in 5 mL water with 0.25% tween 20, foliar
# Protocol: DISEASE/PEST: Spodoptera exigua CROP: pea plants (Pisum sativum) APPLICATION: FOLIAR EXPERIMENT/TRIAL PROTOCOL: Peas were grown in pots in the greenhouse (4 plants/pot). […] Plants were sprayed with a small handheld sprayer. 5 ml of spraying volume was applied. First instar (L1) Spodoptera larvae were added to the plants 24h after the treatment. Plant damage, larval survival and larval weight were followed up for 12 days. […] Table 4. Effect on survival and leaf damage of S. exigua on P. sativum.
# [3] = seed coating 2 L/mt, 14 days after sowing
# [4] = seed coating 2 L/mt, 14 days after sowing, relative to untreated check
molecule,measurement,setting,value
"CCCCCCCC(=O)O [Caprylic acid, caprylic acid]",number of galls,[1],reduced
same,Emax,Fusarium culmorum; seed treatment 6.08 g/ton,80%
same,Emax,Fusarium culmorum; seed treatment 7.60 g/ton,80%
same,Emax,Leptosphaeria maculans; seed treatment 7.60 g/ton,80%
CCCCCCCCC(=O)O.N [Ammonium pelargonate],"root length, surface and volume, tips and forks per plant",[2]; coated seeds compared with untreated seedlings,"Seeds coated with ammonium pelargonate showed an increase in root length, surface and volume and an increase in tips and forks per plant. (Table 12)"
same,Forks (#/plant),[2]; [3],330.70 #/plant
same,Fresh weight (g/plant),[2]; [3],0.53 g/plant
same,Plant height (cm),[2]; [3],22.5 cm
same,Root diameter (mm),[2]; [3],0.27 mm
same,Root length (cm),[2]; [3],142.1 cm
same,Root surface (cm^2),[2]; [3],11.90 cm^2
same,Root volume (cm^3),[2]; [3],0.08 cm^3
same,Tillers (#/plant),[2]; [3],0.40 #/plant
same,Tips (#/plant),[2]; [3],1585.20 #/plant
same,Forks (%UNCK),[2]; [4],146.65 %UNCK
same,Fresh weight (%UNCK),[2]; [4],99.81 %UNCK
same,Plant height (%UNCK),[2]; [4],100.9 %UNCK
same,Root diameter (%UNCK),[2]; [4],95.08 %UNCK
same,Root length (%UNCK),[2]; [4],131.5 %UNCK
same,Root surface (%UNCK),[2]; [4],124.21 %UNCK
same,Root volume (%UNCK),[2]; [4],117.23 %UNCK
same,Tips (%UNCK),[2]; [4],120.36 %UNCK
"O=C(O)CCCCCCCC(=O)O [Azaleic acid, Azelaic acid]",number of galls,[1],no effect
same,Emax,Leptosphaeria maculans; seed treatment 1.52 g/ton,100%
same,Emax,Leptosphaeria maculans; seed treatment 2.28 g/ton,100%
same,Emax,Leptosphaeria maculans; seed treatment 3.04 g/ton,100%
same,Emax,Leptosphaeria maculans; seed treatment 4.56 g/ton,80%
same,Emax,Leptosphaeria maculans; seed treatment 6.08 g/ton,80%
same,Emax,Leptosphaeria maculans; seed treatment 7.60 g/ton,80%
"CCCCCCCCCC(=O)O [Decanoic acid, decanoic acid]",number of galls,[1],reduced
same,Emax,Fusarium culmorum; seed treatment 4.56 g/ton,60%
same,Emax,Fusarium culmorum; seed treatment 6.08 g/ton,60%
same,Emax,Fusarium culmorum; seed treatment 7.60 g/ton,80%
same,Emax,Leptosphaeria maculans; seed treatment 2.28 g/ton,80%
same,Larval weight at day 12,Spodoptera exigua; L1 larvae added 24h after treatment,196 mg
same,Number of larvae after 12 days,"Spodoptera exigua; L1 larvae added 24h after treatment, 22 larvae at start",18
same,plant damage (1 to 5 scale),Spodoptera exigua; followed up for 12 days,1
Ammonium percholate,% efficacy,Fusarium culmorum; in vivo,60%
same,% efficacy,Leptosphaeria maculans; in vivo,70%
